# Measured values published in US20170275650A1, “ENDOSOMAL ESCAPE DOMAINS FOR […] OF MACR[…] CELLS” (priority 2014, published 2017).
# “Also recorded” adds a separate entry of the source. Where a SMILES comes first, the peptide text is derived from it. Bridges are numbered along the chain shown (N, C = ends). Roman numbers before positions name the chains, in order. Where no end group is shown, it is not given here.
# Tested on: GFPβ1-10 expressing H1299c#G3 cells
# Test: split GFP fluorescence complementation transduction assay (FACS)
# Format: cell-based, human
# Conditions: 30 μM GFPβ11-(S-S)-PTD/CPP peptide, FACS (FIG. 3B, C)
# Method: Peptide transduction. All transduction experiments were performed in 48-well plates. An optimized protocol was established. First, 15,000 or 20,000 cells were plated in each well. Next day, the indicated peptides were pipetted into eppendorf tubes. Transduction buffer (60% OptiMEM and 40% PBS) was added to peptide (100 μl total volume), directly mixed by pipetting up and down five times and then immediately transferred to cells. All pipetting steps were done in a laminar flow cell culture hood and standardized to 15 min for each plate before transferring the plate of cells to a 37° C. CO2 incubator for 1.5 h before addition of 500 μl DMEM supplemented with 10% FBS and another incubation round for 3.5 h in the 37° C. CO2 incubator (alternatively cells were incubated 2 h with peptides and another 4 h with DMEM, 10% FBS (FIG. 8b, c, d). For the transduction time-course, cells were incubated with peptides in transduction buffer until indicated time-points. All cells were trypzinized and collected in 250 μl OptiMEM without phenol red and analyzed by FACS (GFP, FSC/SSC). 4000 viable cells were analyzed per sample. Data is presented as fold change in fluorescence compared to non-treated cells.
# To address these problems, the disclosure provides a self-assembling, bimolecular or split GFP fluorescence complementation system that was originally designed to tag and monitor proteins. GFP is composed of 11 β-strands that form a barrel structure allowing for peptidyl backbone cyclization and formation of a fluorescent chromophore. […] Importantly, co-incubation of GFPβ1-10 with the GFPβ11 peptide in trans efficiently reconstitutes GFP fluorescent chromophore bond and GFP fluorescence (FIG. 1a). To study PTD-mediated delivery, cell lines were generated that constitutively expressed the non-fluorescent GFPβ1-10 fragment and treated them in trans with a GFPβ11-PTD/CPP peptide to restore GFP fluorescence.
# Cell clones of various human cell lines constitutively expressing the non-fluorescent large GFPβ1-10 fragment, including H1299 non-small cell lung carcinoma, HaCaT immortalized keratinocytes, and MDA-MB-231 and MCF7 breast carcinomas, and assayed for reconstituted intracellular GFP fluorescence after treatment with transducible GFPβ11-PTD/CPP peptides by FACS (FIG. 1a). Starting with human H1299 cells, known to be a good model for PTD/CPP-mediated uptake, two GFPβ1-10 expressing clones were generated (c#G3 and c#G4) (FIG. 8a). GFPβ1-10 expressing H1299c#G3 cells were treated for 1.5 h with increasing amounts of transducible GFPβ11-TAT peptide (0-60 μM), followed by an additional 3.5 h in DMEM supplemented with 10% FBS. At 5 h post-addition of GFPβ11-TAT peptide, cells were trypsinized and live cell assayed by FACS.
row,Compound,"GFP fluorescence, head-to-head comparison of PTD/CPP delivery domains"
1,RDHMVLHEYVNAAGIT-GGSGGC-(S-S)-CGG-GALFLGFLGAAGSTMGAWSQPKKKRKV (chain 1 RDHMVLHEYVNAAGITGGSGGC; chain 2 CGGGALFLGFLGAAGSTMGAWSQPKKKRKV; also: disulfide to a chain's N/C-terminus) [GFPβ11-(S-S)-MPG],only slightly above background
2,RDHMVLHEYVNAAGIT-GGSGGC-(S-S)-CGG-RRRRRRRR (chain 1 RDHMVLHEYVNAAGITGGSGGC; chain 2 CGGRRRRRRRR; also: disulfide to a chain's N/C-terminus) [GFPβ11-(S-S)-8xArg],significantly better uptake
3,RDHMVLHEYVNAAGIT-GGSGGC-(S-S)-CGG-LLIILRRRIRKQAHAHSK [GFPβ11-(S-S)-pVEC],only slightly above background
4,RDHMVLHEYVNAAGIT-GGSGGC-(S-S)-CGG-KKKKKKKK (chain 1 RDHMVLHEYVNAAGITGGSGGC; chain 2 CGGKKKKKKKK; also: disulfide to a chain's N/C-terminus) [GFPβ11-(S-S)-8xLys],failed to induce GFP fluorescence to any high degree

# Same assay, conditions: 30 μM peptide plus 100 μM Chloroquine (FIG. 3C)
row,Compound,GFP fluorescence after addition of Chloroquine
1,RDHMVLHEYVNAAGIT-GGSGGC-(S-S)-CGG-KKKKKKKK (chain 1 RDHMVLHEYVNAAGITGGSGGC; chain 2 CGGKKKKKKKK; also: disulfide to a chain's N/C-terminus) [GFPβ11-(S-S)-8xLys],failed to induce GFP fluorescence to any high degree

# Same assay, conditions: GFPβ11-(S-S)-TAT-PEG(n)-GWWG series (FIG. 4)
row,Compound,escape efficiency compared to the six PEG unit (P6) spacer
1,"RDHMVLHEYVNAAGIT-GGSGGC-(S-S)-CGG-RKKRRQRRR-(PEG)12-GWWG (disulfide bond, (PEG)12-GWWG) [GFPβ11-(S-S)-TAT-P12-WW]",lower escape efficiency
2,"RDHMVLHEYVNAAGIT-GGSGGC-(S-S)-CGG-RKKRRQRRR-(PEG)18-GWWG (disulfide bond, (PEG)18-GWWG) [GFPβ11-(S-S)-TAT-P18-WW]",lower escape efficiency

# Same assay, conditions: PEG6-spaced EED peptides (FIG. 5A-D)
row,Compound,enhancement compared to the -GWWG motif
1,RDHMVLHEYVNAAGIT-GGSGGC-(S-S)-CGG-RKKRRQRRR-(PEG)6-GWGGWG [GFPβ11-(S-S)-TAT-P6-WGGW],decreased the enhancement approximately two-fold

# Same assay, conditions: dose-dependent comparison, up to 60 μM, FACS (FIG. 4, 5)
row,Compound,GFP fluorescence / transduction compared to parental GFPβ11-(S-S)-TAT
1,RDHMVLHEYVNAAGIT-GGSGGC-(S-S)-CGG-RKKRRQRRR-(PEG)6-GWWG [GFPβ11-(S-S)-TAT-P6-GWWG],retained enhanced cytoplasmic delivery; also recorded: four-fold increase
2,RDHMVLHEYVNAAGIT-GGSGGC-(5-5)-CGG-RKKRRQRRR-(PEG)6-GWG [GFPβ11-(S-S)-TAT-P6-GWG],no net effect
3,RDHMVLHEYVNAAGIT-GGSGGC-(S-S)-CGG-RKKRRQRRR-(PEG)6-GG [GFPβ11-(S-S)-TAT-P6-GG],lower uptake than GFPβ11-(S-S)-TAT peptide
4,"RDHMVLHEYVNAAGIT-GGSGGC-(S-S)-CGG-RKKRRQRRR-(PEG)6-GFFG (disulfide bond, (PEG)6-GFFG) [GFPβ11-(S-S)-TAT-P6-GFFG]",no net effect
5,RDHMVLHEYVNAAGIT-GGSGGC-(S-S)-CGG-RKKRRQRRR-(PEG)6-GFWG [GFPβ11-(S-S)-TAT-P6-GFWG],two-fold increase
6,"RDHMVLHEYVNAAGIT-GGSGGC-(S-S)-CGG-RKKRRQRRR-(PEG)18-GWWG (disulfide bond, (PEG)18-GWWG) [GFPβ11-(S-S)-TAT-P18-WW]",reduced GFPβ11 delivery below that of the control GFPβ11-(S-S)-TAT

# Tested on: GFPβ1-10 expressing H1299c#G3 cells
# Test: not given
# Format: cell-based, human
# Conditions: FACS FSC/SSC and viable cell number relative to untreated control cells
# Text: Cell morphology and cell viability.
row,Compound,cytotoxicity / morphological changes
1,CC[C@H](C)[C@H](NC(=O)CNC(=O)[C@H](C)NC(=O)[C@H](C)NC(=O)[C@H](CC(N)=O)NC(=O)[C@@H](NC(=O)[C@H](Cc1ccc(O)cc1)NC(=O)[C@H](CCC(=O)O)NC(=O)[C@H](Cc1c[nH]cn1)NC(=O)[C@H](CC(C)C)NC(=O)[C@@H](NC(=O)[C@H](CCSC)NC(=O)[C@H](Cc1c[nH]cn1)NC(=O)[C@H](CC(=O)O)NC(=O)[C@@H](N)CCCNC(=N)N)C(C)C)C(C)C)C(=O)N[C@H](C(=O)NCC(=O)NCC(=O)N[C@@H](CO)C(=O)NCC(=O)NCC(=O)N[C@@H](CCCNC(=N)N)C(=O)N[C@@H](CCCCN)C(=O)N[C@@H](CCCCN)C(=O)N[C@@H](CCCNC(=N)N)C(=O)N[C@@H](CCCNC(=N)N)C(=O)N[C@@H](CCC(N)=O)C(=O)N[C@@H](CCCNC(=N)N)C(=O)N[C@@H](CCCNC(=N)N)C(=O)N[C@@H](CCCNC(=N)N)C(N)=O)[C@@H](C)O [GFPβ11-TAT] (H-RDHMVLHEYVNAAGITGGSGGRKKRRQRRR-NH2),did not display any cytotoxicity or morphological changes
2,CC[C@H](C)[C@H](NC(=O)CNC(=O)[C@H](C)NC(=O)[C@H](C)NC(=O)[C@H](CC(N)=O)NC(=O)[C@@H](NC(=O)[C@H](Cc1ccc(O)cc1)NC(=O)[C@H](CCC(=O)O)NC(=O)[C@H](Cc1c[nH]cn1)NC(=O)[C@H](CC(C)C)NC(=O)[C@@H](NC(=O)[C@H](CCSC)NC(=O)[C@H](Cc1c[nH]cn1)NC(=O)[C@H](CC(=O)O)NC(=O)[C@@H](N)CCCNC(=N)N)C(C)C)C(C)C)C(=O)N[C@H](C(=O)NCC(=O)NCC(=O)N[C@@H](CO)C(=O)NCC(=O)NCC(=O)N[C@@H](CSSC[C@H](N)C(=O)NCC(=O)NCC(=O)N[C@@H](CCCNC(=N)N)C(=O)N[C@@H](CCCCN)C(=O)N[C@@H](CCCCN)C(=O)N[C@@H](CCCNC(=N)N)C(=O)N[C@@H](CCCNC(=N)N)C(=O)N[C@@H](CCC(N)=O)C(=O)N[C@@H](CCCNC(=N)N)C(=O)N[C@@H](CCCNC(=N)N)C(=O)N[C@@H](CCCNC(=N)N)C(N)=O)C(N)=O)[C@@H](C)O [GFPβ11-(S-S)-TAT],absence of cytotoxicity
3,CC[C@H](C)[C@H](NC(=O)CNC(=O)[C@H](C)NC(=O)[C@H](C)NC(=O)[C@H](CC(N)=O)NC(=O)[C@@H](NC(=O)[C@H](Cc1ccc(O)cc1)NC(=O)[C@H](CCC(=O)O)NC(=O)[C@H](Cc1c[nH]cn1)NC(=O)[C@H](CC(C)C)NC(=O)[C@@H](NC(=O)[C@H](CCSC)NC(=O)[C@H](Cc1c[nH]cn1)NC(=O)[C@H](CC(=O)O)NC(=O)[C@@H](N)CCCNC(=N)N)C(C)C)C(C)C)C(=O)N[C@H](C(=O)NCC(=O)NCC(=O)N[C@@H](CO)C(=O)NCC(=O)NCC(=O)N[C@@H](CSSC[C@H](N)C(=O)NCC(=O)NCC(=O)N[C@@H](CCCNC(=N)N)C(=O)N[C@@H](CCCCN)C(=O)N[C@@H](CCCCN)C(=O)N[C@@H](CCCNC(=N)N)C(=O)N[C@@H](CCCNC(=N)N)C(=O)N[C@@H](CCC(N)=O)C(=O)N[C@@H](CCCNC(=N)N)C(=O)N[C@@H](CCCNC(=N)N)C(=O)N[C@@H](CCCNC(=N)N)C(=O)NCC(=O)N[C@@H](Cc1c[nH]c2ccccc12)C(=O)N[C@@H](Cc1c[nH]c2ccccc12)C(=O)NCC(N)=O)C(N)=O)[C@@H](C)O [GFPβ11-(S-S)-TAT-WW] (I: H-RDHMVLHEYVNAAGITGGSGGC-NH2 / II: H-CGGRKKRRQRRRGWWG-NH2; disulfide I:22-II:1),severely increased cytotoxicity
4,CC[C@H](C)[C@H](NC(=O)CNC(=O)[C@H](C)NC(=O)[C@H](C)NC(=O)[C@H](CC(N)=O)NC(=O)[C@@H](NC(=O)[C@H](Cc1ccc(O)cc1)NC(=O)[C@H](CCC(=O)O)NC(=O)[C@H](Cc1c[nH]cn1)NC(=O)[C@H](CC(C)C)NC(=O)[C@@H](NC(=O)[C@H](CCSC)NC(=O)[C@H](Cc1c[nH]cn1)NC(=O)[C@H](CC(=O)O)NC(=O)[C@@H](N)CCCNC(=N)N)C(C)C)C(C)C)C(=O)N[C@H](C(=O)NCC(=O)NCC(=O)N[C@@H](CO)C(=O)NCC(=O)NCC(=O)N[C@@H](CSSC[C@H](N)C(=O)NCC(=O)NCC(=O)N[C@@H](C)C(=O)NCC(=O)N[C@@H](Cc1ccc(O)cc1)C(=O)N[C@@H](CC(C)C)C(=O)N[C@@H](CC(C)C)C(=O)NCC(=O)N[C@@H](CCCCN)C(=O)N[C@H](C(=O)N[C@@H](CC(N)=O)C(=O)N[C@@H](CC(C)C)C(=O)N[C@@H](CCCCN)C(=O)N[C@@H](C)C(=O)N[C@@H](CC(C)C)C(=O)N[C@@H](C)C(=O)N[C@@H](C)C(=O)N[C@@H](CC(C)C)C(=O)N[C@@H](C)C(=O)N[C@@H](CCCCN)C(=O)N[C@@H](CCCCN)C(=O)N[C@H](C(=O)N[C@@H](CC(C)C)C(N)=O)[C@@H](C)CC)[C@@H](C)CC)C(N)=O)[C@@H](C)O [GFPβ11-(S-S)-TP10],very high level of cytotoxicity; also recorded: high toxicity
